Counter-ions that a name gives are not always drawn. Like-named read-outs stand apart in the source and are kept apart here.
Columns and labels:
LSD1 = LSD1 (Homo sapiens (Human), UniProt O60341); assay: LSD1 enzyme activity detection (HTRF); type: biochemical
NCI-H1417 cells = assay: In vitro cell proliferation detection (CellTiter-Glo, 7 days); type: cell-based; conditions: Homo sapiens
[1] = HTRF, H3K4me1 substrate, read-out: Inhibition of enzymatic activity of LSD1 IC50
[2] = 168 h, NCI-H1417 cells, 7 days, CellTiter-Glo, read-out: NCI-H1417 proliferation inhibition IC50

Row | SMILES | IC50 (LSD1; [1]) [nM] | IC50 (NCI-H1417 cells; [2]) [nM] | IC50 (LSD1) [nM] | IC50 (LSD1; read-out: Inhibition of enzymatic activity of LSD1 IC50) [nM] | IC50 (NCI-H1417 cells; NCI-H1417, 168 h, read-out: NCI-H1417 proliferation inhibition IC50(nM)) [nM]
1 | Cc1ccc(-c2sc(C(=O)N3C4CCC3CC(N)C4)cc2-c2ccc(C#N)c(F)c2)c(F)c1 (stereo not drawn) [Example 6, 4-(5-(3-amino-8-azabicyclo[3.2.1]octane-8-carbonyl)-2-(2-fluoro-4-methylphenyl)thiophen-3-yl)-2-fluorobenzonitrile hydrochloride] | 0.3 ± 0.25 | 3.64 |  |  | 
2 | Cc1ccc(-c2sc(CN3C4CCC3CC(N)C4)cc2-c2ccc(C#N)c(F)c2)c(F)c1 (stereo not drawn) [Example 7, 4-(5-((3-amino-8-azabicyclo[3.2.1]octane-8-yl)methyl)-2-(2-fluoro-4-methylphenyl)thiophen-3-yl)-2-fluorobenzonitrile trifluoroacetate] |  | 46.4 | 0.4 ± 0.29 |  | 
3 | CCCCCc1noc2cc(-c3sc(C(=O)N4C5CCC4CC(N)C5)cc3-c3ccc(C#N)c(F)c3)c(F)cc12 (stereo not drawn) [Example 8, 4-(5-(3-amino-8-azabicyclo[3.2.1]octane-8-carbonyl)-2-(5-fluoro-3-pentylbenzo[d]isoxazol-6-yl)thiophen-3-yl)-2-fluorobenzonitrile] | 0.3 ± 0.04 | 6.94 |  |  | 
4 | Cc1ccc(-c2c(-c3ccc(C#N)cc3)cc3c(N4CCC[C@@H](N)C4)cccn23)cc1 [Example 10, (R)-4-(8-(3-aminopiperidin-1-yl)-3-(p-tolyl)indolizin-2-yl)benzonitrile hydrochloride] |  |  |  | 79.1 ± 18.9 | 371
5 | COc1ccc(-c2c(O)cc(N3C4CCC3CC(N)C4)nc2-c2ccc(C#N)c(F)c2)cc1F (stereo not drawn) [Example 14, 4-(6-(3-amino-8-azabicyclo[3.2.1]octane-8-yl)-3-(3-fluoro-4-methoxyphenyl)-4-hydroxypyridin-2-yl)-2-fluorobenzonitrile] | 13.8 | 64.9 |  |  | 
6 | COc1ccc(-c2c(O)cc(N3CCN(C)CC3)nc2-c2ccc(C#N)c(F)c2)cc1F [Example 15, 2-fluoro-4-(3-(3-fluoro-4-methoxyphenyl)-4-hydroxy-6-(4-methylpiperazin-1-yl)pyridin-2-yl)benzonitrile] | 49.9 | 104 |  |  | 
7 | CNC1CCCN(c2cc(O)c(-c3ccc(OC)c(F)c3)c(-c3ccc(C#N)c(F)c3)n2)C1 (stereo not drawn) [Example 16, 2-fluoro-4-(3-(3-fluoro-4-methoxyphenyl)-4-hydroxy-6-(3-(methylamino)piperidin-1-yl)pyridin-2-yl)benzonitrile] | 15.2 ± 3.7 | 38 |  |  | 
8 | N#Cc1ccc(-c2nc(N3CCC(N)CC3)cc(O)c2-c2ccn3ccnc3c2)cc1F [Example 17, 4-(6-(4-aminopiperidin-1-yl)-4-hydroxy-3-(imidazolo[1,2-a]pyridin-7-yl)pyridin-2-yl)-2-fluorobenzonitrile hydrochloride] | 19.4 | > 1000 |  |  | 
9 | N#Cc1ccc(-c2nc(N3CCC(N)CC3)cc(O)c2-c2ccc(OC(F)(F)F)c(F)c2)cc1F [Example 18, 4-(6-(4-aminopiperidin-1-y)-3-(3-fluoro-4-(trifluoromethoxy)phenyl)-4-hydroxypyridin-2-yl)-2-fluorobenzonitrile] | 78.3 | 87.2 |  |  | 
10 | N#Cc1ccc(-c2nc(N3CCC(N)CC3)cc(O)c2-c2ccc3oc(=O)[nH]c3c2)cc1F [Example 19, 4-(6-(4-aminopiperidin-1-yl)-4-hydroxy-3-(2-oxo-2,3-dihydrobenzo[d]oxazol-5-yl)pyridin-2-yl)-2-fluorobenzonitrile hydrochloride] | 5.96 | > 1000 |  |  | 
11 | N#Cc1ccc(-c2nc(N3CCC(N)CC3)cc(O)c2-c2ccc(N3CCOCC3)cc2)cc1F [Example 21, 4-(6-(4-aminopiperidin-1-yl)-4-hydroxy-3-(4-morpholinophenyl)pyridin-2-yl)-2-fluorobenzonitrile hydrochloride] | 10.5 | 38.7 |  |  | 
12 | COc1ccc(-c2c(O)cc(N3CCC(N)CC3)nc2-c2ccc(C#N)c(F)c2)cn1 [Example 22, 4-(6-(4-aminopiperidin-1-yl)-4-hydroxy-6′-methoxy-[3,3′-bipyridine]-2-yl)-2-fluorobenzonitrile] | 9.03 | 34.9 |  |  | 
